Measured values: patent US5006511A, “Di- or tripeptide renin inhibitors containing lactam conformational restriction in achpa” (Merck & Co., Inc., priority 1988, dated 1991)
Where a SMILES comes first, the peptide text is derived from it. [ ]: non-standard residue; d: D form. The star is where a group is joined. Sta = CC(C)C[C@H](N)[C@@H](O)CC(=O)O; Isovaleryl = CC(C)CC(=O)*

target: T1, human plasma renin (Homo sapiens, UniProt P00797); assay: In vitro inhibition of human plasma renin (Boger et al., J. Med. Chem. 1985, 28, 1779); format: biochemical; details: human plasma renin assay
T1 construct: from tissue; host or cells: human plasma
T1 sequence (P00797 67-406): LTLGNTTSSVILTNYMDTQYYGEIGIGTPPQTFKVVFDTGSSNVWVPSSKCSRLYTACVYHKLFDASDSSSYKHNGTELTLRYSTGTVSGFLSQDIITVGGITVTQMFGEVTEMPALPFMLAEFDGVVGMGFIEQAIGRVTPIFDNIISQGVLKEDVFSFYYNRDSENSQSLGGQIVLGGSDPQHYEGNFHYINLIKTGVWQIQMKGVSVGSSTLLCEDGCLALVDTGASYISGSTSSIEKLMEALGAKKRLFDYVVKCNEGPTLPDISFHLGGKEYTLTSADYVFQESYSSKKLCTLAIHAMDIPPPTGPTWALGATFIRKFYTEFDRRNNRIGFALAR
Procedure: In vitro inhibition of human plasma renin was measured as described by Boger, et al., J. Med. Chem. (1985) 28, 1779.
They were analyzed for purity by HPLC (30 minute gradient, 5% CH3 CN--H2 O to 95% CH3 CN--H2 O buffered with 0.1% H3 PO4; C18 reverse phase column), and were analyzed for composition by C, H, and N combustion analysis. IC50 values were measured in vitro using the human plasma renin assay, as described by Boger et al. J. Med. Chem. (1985) 28, 1779.
They were analyzed for purity by HPLC under conditions given above, and were analyzed for composition by C, H, and N combustion analysis. IC50 values were measured as described above.

Molecule	IC50 [nM]
Boc-Phe-His-(ACHP)-5(S)-Ethyl-1-Methyl-2-Pyrrolidinone [Example 3L]	5.3
Boc-Phe-His-(ACHP)-5(S)-Acetoxymethyl)-1-Methyl-2-Pyrrolidinone [Example 3J]	157
Boc-Phe-His-(ACHP)-1-Methyl-2-Pyrrolidinone [Example 3A]	9.9
Boc-Phe-His-(ACHP)-5(S)-Benzyloxymethyl-1-Methyl-2-Pyrrolidinone [Example 3C]	4400
Boc-Phe-His-(ACHP)-5(S)-Hydroxymethyl)-1-Methyl-2-Pyrrolidinone [Example 3I]	14
Boc-Phe-His-(ACHP)-5(R)-Ethyl-1-Methyl-2-Pyrrolidinone [Example 3K]	8.5
Boc-Phe-His-(ACHP)-1-Cyclohexyl-2-Pyrrolidinone [Example 3B]	10
Boc-Phe-His-(ACHP)-1-(2-Benzyloxyethyl-2-Pyrrolidinone [Example 3E]	24
Boc-Phe-His-(ACHP)-5(S)-Methoxymethyl-1-Methyl-2-Pyrrolidinone [Example 3D]	71
Boc-Phe-His-(ACHP)-1-Methyl-5(S)-Vinyl-2-Pyrrolidinone [Example 3F]	8
Boc-Phe-His-(ACHP)-1-Methyl-5(R)-Vinyl-2-Pyrrolidinone [Example 3G]	2.5

test system: hog renin; assay: not given; details: after the injection of hog renin into nephrectomized rats; Gross et al., Science 1972; cited from earlier work

Molecule	blood pressure in vivo
CC(C)CC(=O)N[C@H](C(=O)N[C@H](C(=O)N[C@@H](CC(C)C)[C@@H](O)CC(=O)N[C@@H](C)C(=O)N[C@@H](CC(C)C)[C@@H](O)CC(=O)O)C(C)C)C(C)C [pepstatin] (Isovaleryl-VV[Sta]A[Sta]-OH)	reduces blood pressure in vivo
